How the values were obtained:
[1] = molecular target: Carbonic anhydrase 1 (Homo sapiens, UniProt P00915); assay: Inhibition of recombinant human carbonic anhydrase 1 incubated for 10 mins prior to testing measured for 5 to 10 secs by phenol red-based stopped-flow CO2 hydration assay
[2] = molecular target: Carbonic anhydrase 2 (Homo sapiens, UniProt P00918); assay: Inhibition of recombinant human carbonic anhydrase 2 incubated for 10 mins prior to testing measured for 5 to 10 secs by phenol red-based stopped-flow CO2 hydration assay
[3] = molecular target: Carbonic anhydrase 9 (Homo sapiens, UniProt Q16790); assay: Inhibition of recombinant human carbonic anhydrase 9 incubated for 10 mins prior to testing measured for 5 to 10 secs by phenol red-based stopped-flow CO2 hydration assay
[4] = molecular target: Carbonic anhydrase 12 (Homo sapiens, UniProt O43570); assay: Inhibition of recombinant human carbonic anhydrase 12 incubated for 10 mins prior to testing measured for 5 to 10 secs by phenol red-based stopped-flow CO2 hydration assay
Sequence of Carbonic anhydrase 12 (O43570 whole entry): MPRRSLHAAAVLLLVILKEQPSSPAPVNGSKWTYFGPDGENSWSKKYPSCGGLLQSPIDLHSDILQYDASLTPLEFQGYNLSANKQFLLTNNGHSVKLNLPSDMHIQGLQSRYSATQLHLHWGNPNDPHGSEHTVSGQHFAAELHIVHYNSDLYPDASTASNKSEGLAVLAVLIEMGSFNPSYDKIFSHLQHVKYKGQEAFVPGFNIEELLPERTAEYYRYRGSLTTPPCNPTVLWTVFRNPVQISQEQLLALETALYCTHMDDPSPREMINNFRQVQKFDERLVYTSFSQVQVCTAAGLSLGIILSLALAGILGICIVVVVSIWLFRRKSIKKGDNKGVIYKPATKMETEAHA

Sequence of Carbonic anhydrase 1 (P00915 whole entry): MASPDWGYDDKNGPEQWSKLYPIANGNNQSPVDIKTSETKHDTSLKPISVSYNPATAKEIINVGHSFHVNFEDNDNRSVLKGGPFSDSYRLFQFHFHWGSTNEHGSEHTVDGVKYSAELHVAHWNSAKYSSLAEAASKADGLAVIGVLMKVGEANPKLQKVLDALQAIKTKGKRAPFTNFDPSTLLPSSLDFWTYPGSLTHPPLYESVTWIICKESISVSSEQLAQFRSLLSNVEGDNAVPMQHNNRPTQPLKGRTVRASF

NS(=O)(=O)c1ccc(-c2nnc(SCC(=O)c3ccc(F)cc3)o2)cc1 gave a Ki [1] of 744 nM, a Ki [2] of 69.4 nM and a Ki [3] of 1980 nM. For the same molecule, the Ki [4] was 2240 nM.
For NS(=O)(=O)c1ccc(-c2nnc(SCC(=O)Nc3ccc([N+](=O)[O-])cc3)o2)cc1, the Ki [1] was 762 nM, the Ki [2] was 73.1 nM and the Ki [3] was 256 nM. For the same molecule, the Ki [4] was 737 nM.
NS(=O)(=O)c1ccc(-c2nnc(SCC(=O)Nc3cccc(Cl)c3)o2)cc1 gave a Ki [1] of 501 nM, a Ki [2] of 81.9 nM and a Ki [3] of 50.8 nM. The Ki [4] was 400 nM.
NS(=O)(=O)c1ccc(-c2nnc(SCC(=O)c3ccc(Cl)cc3)o2)cc1 showed a Ki [1] of 595 nM, a Ki [2] of 67.3 nM and a Ki [3] of 1320 nM. It also gave a Ki [4] of 840 nM.
For NS(=O)(=O)c1ccc(-c2nnc(SCC(=O)Nc3ccc(Cl)cc3)o2)cc1, the Ki [1] was 2080 nM, the Ki [2] was 96 nM and the Ki [3] was 757 nM. The Ki [4] was 838 nM.
With NS(=O)(=O)c1ccc(-c2nnc(SCC(=O)c3ccc(Br)cc3)o2)cc1 the Ki [1] was 617 nM, the Ki [2] was 67 nM and the Ki [3] was 1750 nM. It also gave a Ki [4] of 636 nM.
Work on NS(=O)(=O)c1ccc(-c2nnc(SCC(=O)c3ccc([N+](=O)[O-])cc3)o2)cc1 yielded a Ki [1] of 70.7 nM, a Ki [2] of 29.5 nM and a Ki [3] of 633 nM. For the same molecule, the Ki [4] was 294 nM.
NS(=O)(=O)c1ccc(-c2nnc(SCC(=O)c3cccc(Cl)c3)o2)cc1 gave a Ki [1] of 544 nM, a Ki [2] of 59.2 nM and a Ki [3] of 1250 nM. It also gave a Ki [4] of 383 nM.
COc1ccc(C(=O)CSc2nnc(-c3ccc(S(N)(=O)=O)cc3)o2)cc1 gave a Ki [1] of 3810 nM, a Ki [2] of 158 nM and a Ki [3] of 449 nM. For the same molecule, the Ki [4] was 3620 nM.
Molecule COc1cccc(NC(=O)CSc2nnc(-c3ccc(S(N)(=O)=O)cc3)o2)c1 has a Ki [1] of 673 nM, a Ki [2] of 69.8 nM and a Ki [3] of 53.1 nM. For the same molecule, the Ki [4] was 690 nM.
Cc1ccc(C(=O)CSc2nnc(-c3ccc(S(N)(=O)=O)cc3)o2)cc1 was tested, and the Ki [1] was 3320 nM, the Ki [2] was 148 nM and the Ki [3] was 201 nM. The Ki [4] was 231 nM.
For NS(=O)(=O)c1ccc(-c2nnc(SCC(=O)Nc3ccccc3)o2)cc1, the Ki [1] was 542 nM, the Ki [2] was 61.1 nM and the Ki [3] was 111 nM. It also gave a Ki [4] of 366 nM.
With COc1ccc(NC(=O)CSc2nnc(-c3ccc(S(N)(=O)=O)cc3)o2)cc1 the Ki [1] was 2920 nM, the Ki [2] was 53.6 nM and the Ki [3] was 29 nM. The Ki [4] was 266 nM.
With NS(=O)(=O)c1ccc(-c2nnc(SCC(=O)c3cccc([N+](=O)[O-])c3)o2)cc1 the Ki [1] was 669 nM, the Ki [2] was 58.5 nM and the Ki [3] was 566 nM. For the same molecule, the Ki [4] was 577 nM.
COc1cccc(C(=O)CSc2nnc(-c3ccc(S(N)(=O)=O)cc3)o2)c1 was tested, and the Ki [1] was 470 nM, the Ki [2] was 79.6 nM and the Ki [3] was 1330 nM. It also gave a Ki [4] of 492 nM.
NS(=O)(=O)c1ccc(-c2nnc(SCC(=O)c3ccccc3)o2)cc1 was tested, and the Ki [1] was 1360 nM, the Ki [2] was 347 nM and the Ki [3] was 757 nM. It also gave a Ki [4] of 265 nM.
NS(=O)(=O)c1ccc(-c2nnc(SCC(=O)Nc3ccc(Br)cc3)o2)cc1 showed a Ki [1] of 3900 nM, a Ki [2] of 848 nM and a Ki [3] of 671 nM. For the same molecule, the Ki [4] was 751 nM.
NS(=O)(=O)c1ccc(-c2nnc(SCC(=O)Nc3ccc(F)cc3)o2)cc1 was tested, and the Ki [1] was 711 nM, the Ki [2] was 85.7 nM and the Ki [3] was 163 nM. The Ki [4] was 588 nM.
With NS(=O)(=O)c1ccc(-c2nnc(SCC(=O)Nc3cccc([N+](=O)[O-])c3)o2)cc1 the Ki [1] was 73.2 nM, the Ki [2] was 7.9 nM and the Ki [3] was 16.3 nM. For the same molecule, the Ki [4] was 257 nM.
Cc1ccc(NC(=O)CSc2nnc(-c3ccc(S(N)(=O)=O)cc3)o2)cc1 gave a Ki [1] of 739 nM, a Ki [2] of 78.7 nM and a Ki [3] of 74.1 nM. For the same molecule, the Ki [4] was 263 nM.

From ChEMBL document CHEMBL4680240, “Tail approach synthesis of novel benzenesulfonamides incorporating 1,3,4-oxadiazole hybrids as potent inhibitor of carbonic anhydrase I, II, IX, and XII isoenzymes” (Eur J Med Chem, 2020)
